Converted amounts (≈) assume the structure as drawn.
Key:
E. coli K12C600 = experiment: In vitro antibacterial activity, agar disc dilution method; format: cell-based; details: Escherichia coli; E. coli K12C600; Mueller Hinton agar, 10^6/ml, 37°C for 16 hours; read-out: minimum growth inhibitory concentration (MIC)
Protocol: (§1) An in vitro antibacterial activity was measured by an agar disc dilution method.
(§2) Varied test bacteria were cultivated overnight in triptophane-soybroth. A Mueller Hinton agar containing the compound of this invention in varied concentrations was streaked with one platinum loopful of each of the bacteria (number of living cells 10^6/ml).

B. subtilis ATCC 6633 = experiment: as above; format: cell-based; details: Bacillus subtilis, ATCC6633; B. subtilis ATCC 6633; Mueller Hinton agar, 10^6/ml, 37°C for 16 hours; read-out: minimum growth inhibitory concentration (MIC)
Protocol: as §1, §2

M. euteus ATCC 9341 = experiment: as above; format: cell-based; details: M. euteus ATCC 9341; Mueller Hinton agar, 10^6/ml, 37°C for 16 hours; read-out: minimum growth inhibitory concentration (MIC)
Protocol: as §1, §2

S. marcescens I AM 1184 = experiment: as above; format: cell-based; details: Serratia marcescens, IAM1184; S. marcescens I AM 1184; Mueller Hinton agar, 10^6/ml, 37°C for 16 hours; read-out: minimum growth inhibitory concentration (MIC)
Protocol: as §1, §2

K. pneumoniae PC I 602 = experiment: as above; format: cell-based; details: Klebsiella pneumoniae, PCI602; K. pneumoniae PC I 602; Mueller Hinton agar, 10^6/ml, 37°C for 16 hours; read-out: minimum growth inhibitory concentration (MIC)
Protocol: as §1, §2

S. aureus Terajima = experiment: as above; format: cell-based; details: Staphylococcus aureus; S. aureus Terajima; Mueller Hinton agar, 10^6/ml, 37°C for 16 hours; read-out: minimum growth inhibitory concentration (MIC)
Protocol: as §1, §2

P. morganii IFO 3445 = experiment: as above; format: cell-based; details: Morganella morganii, IFO3445; P. morganii IFO 3445; Mueller Hinton agar, 10^6/ml, 37°C for 16 hours; read-out: minimum growth inhibitory concentration (MIC)
Protocol: as §1, §2

S. typhic 901 = experiment: as above; format: cell-based; details: Mueller Hinton agar, 10^6/ml, 37°C for 16 hours, read-out: minimum growth inhibitory concentration (MIC)
Protocol: as §1, §2

P. aeruginosa NCTC 1049 = experiment: as above; format: cell-based; details: Pseudomonas aeruginosa, NCTC1049; P. aeruginosa NCTC 1049; Mueller Hinton agar, 10^6/ml, 37°C for 16 hours; read-out: minimum growth inhibitory concentration (MIC)
Protocol: as §1, §2

S. enteritidis G14 = experiment: as above; format: cell-based; details: Salmonella enterica; S. enteritidis G14; Mueller Hinton agar, 10^6/ml, 37°C for 16 hours; read-out: minimum growth inhibitory concentration (MIC)
Protocol: as §1, §2

S. pyogenes Cook = experiment: as above; format: cell-based; details: Streptococcus pyogenes; S. pyogenes Cook; Mueller Hinton agar, 10^6/ml, 37°C for 16 hours; read-out: minimum growth inhibitory concentration (MIC)
Protocol: as §1, §2

P. vulgalis OX-19 = experiment: as above; format: cell-based; details: P. vulgalis OX-19; Mueller Hinton agar, 10^6/ml, 37°C for 16 hours; read-out: minimum growth inhibitory concentration (MIC)
Protocol: as §1, §2

P. rettgeric IFO3850 = experiment: as above; format: cell-based; details: P. rettgeric IFO3850; Mueller Hinton agar, 10^6/ml, 37°C for 16 hours; read-out: minimum growth inhibitory concentration (MIC)
Protocol: as §1, §2

E. cloacae 963 = experiment: as above; format: cell-based; details: Enterobacter cloacae; E. cloacae 963; Mueller Hinton agar, 10^6/ml, 37°C for 16 hours; read-out: minimum growth inhibitory concentration (MIC)
Protocol: as §1, §2

[1] = system: alkali phosphatase (derived from calf intestines); experiment: Conversion by alkali phosphatase, analyzed by liquid chromatography; format: in vitro ADME; details: 2 mg in 1 ml glycine buffer pH 7.0, 20U alkali phosphatase, 37°C for 1 hour, liquid chromatography RP-18, UV 260 nm
Protocol: 2 mg of the captioned compound was dissolved in 1 ml of a glycine buffer having pH of 7.0, and 20U of commercial alkali phosphatase (derived from calf intestines) was charged. The solution was kept at 37°C for 1 hour, and then analyzed by liquid chromatography [column: RP-18, elution solvent: a water/methanol solvent mixture, detection: UV wavelength 260 nm].

Rf value of the main peak compared with the 6,7-dihydroxy-2-isoquinoliniummethyl compound (compound of Example 1) [1]	SMILES	MIC (E. coli K12C600) [µg/mL]	MIC (B. subtilis ATCC 6633) [µg/mL]	MIC (M. euteus ATCC 9341) [µg/mL]	MIC (S. marcescens I AM 1184) [µg/mL]	MIC (K. pneumoniae PC I 602) [µg/mL]	MIC (S. aureus Terajima) [µg/mL]	MIC (P. morganii IFO 3445) [µg/mL]	MIC (S. typhic 901) [µg/mL]	MIC (P. aeruginosa NCTC 1049) [µg/mL]	MIC (S. enteritidis G14) [µg/mL]	MIC (S. pyogenes Cook) [µg/mL]	MIC (P. vulgalis OX-19) [µg/mL]	MIC (P. rettgeric IFO3850) [µg/mL]	MIC (E. cloacae 963) [µg/mL]
	Nc1nc(/C(=N/Oc2ccccc2)C(=O)N[C@@H]2C(=O)N3C(C(=O)[O-])=C(C[n+]4ccc5cc(O)c(O)cc5c4)CS[C@H]23)ns1 [Compound XI, (6R,7R)-[(Z)-2(5-amino-1,2,4-thiadiazol-3-yl)-2-phenoxyiminoacetamide]-3-(6,7-dihydroxy-2-isoquinolinium)methyl-3-cephem-carboxylate]	0.01 (≈ 0.0161 µM)	0.4 (≈ 0.646 µM)	0.01 (≈ 0.0161 µM)	< 0.01	< 0.01	0.2 (≈ 0.323 µM)	< 0.01	< 0.01	0.2 (≈ 0.323 µM)	< 0.01	0.05 (≈ 0.0807 µM)	< 0.01	< 0.01	< 0.01
	CC(=O)Oc1cc2cc[n+](CC3=C(C(=O)[O-])N4C(=O)[C@@H](NC(=O)/C(=N\Oc5ccccc5)c5csc(N)n5)[C@H]4SC3)cc2cc1O [Compound X]	< 0.01	0.8 (≈ 1.21 µM)	1.6 (≈ 2.42 µM)	< 0.01	< 0.01	1.6 (≈ 2.42 µM)	< 0.01	< 0.01	0.1 (≈ 0.151 µM)	0.01 (≈ 0.0151 µM)	0.8 (≈ 1.21 µM)	< 0.01	< 0.01	< 0.01
confirmed to agree	Nc1nc(/C(=N/Oc2ccccc2)C(=O)N[C@@H]2C(=O)N3C(C(=O)[O-])=C(C[n+]4ccc5cc(O)c(OS(=O)(=O)O)cc5c4)CS[C@H]23)cs1 [Example 6, (6R,7R)-7-[(Z)-2-(2-amino-1,3-thiazol-4-yl-2-phenoxyimino)acetamide]-3-(6,7-hydroxy-7-sulfonyloxy-2-isoquinolinium)methyl-3-cephem-4-carboxylate]														
